Source: ChEMBL document CHEMBL4321783, “Recent Progress in Natural-Product-Inspired Programs Aimed To Address Antibiotic Resistance and Tolerance” (J Med Chem, 2019)
pIC50: −log10 of the molar value. Values after ≈ are worked out from the molar mass of the structure shown.

Key:
Escherichia coli [1] = assay: Antibacterial activity against Escherichia coli MG1655 by broth microdilution method; assay type: functional; details: K-12 substr. MG1655
Escherichia coli [2] = assay: Antibacterial activity against Escherichia coli ELZ4239 by broth microdilution method; assay type: functional
Escherichia coli [3] = assay: Antibacterial activity against Escherichia coli BAA-2469 by broth microdilution method; assay type: functional
Acinetobacter baumannii [4] = assay: Antibacterial activity against Acinetobacter baumannii KB304 by broth microdilution method; assay type: functional
Enterobacter cloacae [5] = assay: Antibacterial activity against Enterobacter cloacae 3-46 by broth microdilution method; assay type: functional
Escherichia coli [6] = assay: Antibacterial activity against Escherichia coli ELZ4081 by broth microdilution method; assay type: functional
Acinetobacter baumannii [7] = assay: Antibacterial activity against Acinetobacter baumannii IF101 by broth microdilution method; assay type: functional
Staphylococcus aureus [8] = assay: Antibacterial activity against Staphylococcus aureus NRS3 by broth microdilution method; assay type: functional
Enterobacter cloacae [9] = assay: Antibacterial activity against Enterobacter cloacae 1-60 by broth microdilution method; assay type: functional
Acinetobacter baumannii [10] = assay: Antibacterial activity against Acinetobacter baumannii ATCC 19606 by broth microdilution method; assay type: functional; details: ATCC 19606 = CIP 70.34 = JCM 6841
Klebsiella pneumoniae [11] = assay: Antibacterial activity against Klebsiella pneumoniae ATCC 27736 by broth microdilution method; assay type: functional
Escherichia coli [12] = assay: Antibacterial activity against Escherichia coli ELZ4017 by broth microdilution method; assay type: functional
Klebsiella pneumoniae [13] = assay: Antibacterial activity against Klebsiella pneumoniae 6-73 by broth microdilution method; assay type: functional
Klebsiella pneumoniae [14] = assay: Antibacterial activity against Klebsiella pneumoniae 4-38 by broth microdilution method; assay type: functional
Pseudomonas aeruginosa [15] = assay: Antibacterial activity against Pseudomonas aeruginosa PAO1 by broth microdilution method; assay type: functional
Enterobacter cloacae [16] = assay: Antibacterial activity against Enterobacter cloacae ATCC 29893 by broth microdilution method; assay type: functional
Acinetobacter baumannii [17] = assay: Antibacterial activity against Acinetobacter baumannii KB349 by broth microdilution method; assay type: functional
Escherichia coli [18] = assay: Antibacterial activity against Escherichia coli ELZ4045 by broth microdilution method; assay type: functional
Escherichia coli [19] = assay: Antibacterial activity against Escherichia coli ELZ4346 by broth microdilution method; assay type: functional
[20] = Drug accumulation in Escherichia coli MG1655 assessed per 10^12 CFU at 50 uM incubated for 10 mins under shaking condition by LC-MS/MS analysis; assay type: ADME, K-12 substr. MG1655
Staphylococcus aureus [21] = assay: Antibacterial activity against Staphylococcus aureus ATCC 29213 by broth microdilution method; assay type: functional
Acinetobacter baumannii [22] = assay: Antibacterial activity against Acinetobacter baumannii BD335 by broth microdilution method; assay type: functional
Acinetobacter baumannii [23] = assay: Antibacterial activity against Acinetobacter baumannii WO22 by broth microdilution method; assay type: functional
Escherichia coli [24] = assay: Antibacterial activity against Escherichia coli ELZ4072 by broth microdilution method; assay type: functional
Pseudomonas aeruginosa [25] = assay: Growth inhibition of Pseudomonas aeruginosa PA14 after 24 hrs; assay type: functional, organism-based; details: PA14, 24 h
Haemophilus influenzae = assay: Antibacterial activity against Haemophilus influenzae 1244 after 20 hrs by CLSI-based microdilution method; assay type: functional; details: Haemophilus influenzae, 1244, 20 h
Enterococcus faecium = assay: Antibacterial activity against […] Enterococcus faecium 1092 after 20 hrs by CLSI-based microdilution method; assay type: functional; details: Enterococcus faecium, 1092, 20 h
Escherichia coli [26] = assay: Antibacterial activity against Escherichia coli 121 after 20 hrs by CLSI-based microdilution method; assay type: functional; details: O157:H7 str. 121, 20 h
Escherichia coli [27] = assay: Antibacterial activity against Escherichia coli 2271 after 20 hrs by CLSI-based microdilution method; assay type: functional; details: Escherichia coli, 2271, 20 h
Staphylococcus aureus [28] = assay: Antibacterial activity against methicillin-resistant Staphylococcus aureus 757 after 20 hrs by CLSI-based microdilution method; assay type: functional; details: Staphylococcus aureus, 757, 20 h
Staphylococcus aureus [29] = assay: Antibacterial activity against methicillin-resistant Staphylococcus aureus 2011 after 20 hrs by CLSI-based microdilution method; assay type: functional; details: Staphylococcus aureus, 2011, 20 h
Streptococcus pneumoniae [30] = assay: Antibacterial activity against Streptococcus pneumoniae 911 after 20 hrs by CLSI-based microdilution method; assay type: functional; details: Streptococcus pneumoniae, 911, 20 h
Pseudomonas aeruginosa [31] = assay: Antibacterial activity against Pseudomonas aeruginosa PA4 after 20 hrs under iron-deficient medium by broth microdilution method; assay type: functional; details: PA4, 20 h
Pseudomonas aeruginosa [32] = assay: Antibacterial activity against Pseudomonas aeruginosa KW799/61 after 20 hrs under iron-deficient medium by broth microdilution method; assay type: functional; details: KW799/61, 20 h
Pseudomonas aeruginosa [33] = assay: Antibacterial activity against Pseudomonas aeruginosa PA4 after 20 hrs under iron-rich medium by broth microdilution method; assay type: functional; details: PA4, 20 h
Pseudomonas aeruginosa [34] = assay: Antibacterial activity against Pseudomonas aeruginosa KW799 after 20 hrs under iron-deficient medium by broth microdilution method; assay type: functional; details: KW799, 20 h
Pseudomonas aeruginosa [35] = assay: Antibacterial activity against Pseudomonas aeruginosa PAO1 after 20 hrs under iron-deficient medium by broth microdilution method; assay type: functional; details: PAO1, 20 h
Pseudomonas aeruginosa [36] = assay: Antibacterial activity against Pseudomonas aeruginosa KW799 after 20 hrs under iron-rich medium by broth microdilution method; assay type: functional; details: KW799, 20 h
Pseudomonas aeruginosa [37] = assay: Antibacterial activity against Pseudomonas aeruginosa PAO1 after 20 hrs under iron-rich medium by broth microdilution method; assay type: functional; details: PAO1, 20 h
Pseudomonas aeruginosa [38] = assay: Antibacterial activity against Pseudomonas aeruginosa KW799/61 after 20 hrs under iron-rich medium by broth microdilution method; assay type: functional; details: KW799/61, 20 h
Staphylococcus aureus [39] = assay: Antibacterial activity against methicillin-resistant Staphylococcus aureus NRS384 expressing MsrA by broth microdilution method; assay type: functional
Streptococcus pneumoniae [40] = assay: Antibacterial activity against Streptococcus pneumoniae ATCC 49619 by broth microdilution method; assay type: functional
Staphylococcus aureus [41] = assay: Antibacterial activity against Staphylococcus aureus BAA-977 expressing iermA by broth microdilution method; assay type: functional
Enterococcus faecalis [42] = assay: Antibacterial activity against Enterococcus faecalis UNT-047 expressing ermB by broth microdilution method; assay type: functional
Enterococcus faecalis [43] = assay: Antibacterial activity against Enterococcus faecalis ATCC 29212 by broth microdilution method; assay type: functional
Pseudomonas aeruginosa [44] = assay: Antibacterial activity against Pseudomonas aeruginosa ATCC 27853 by broth microdilution method; assay type: functional
Streptococcus pneumoniae [45] = assay: Antibacterial activity against Streptococcus pneumoniae UNT-042 expressing ermB/mefA by broth microdilution method; assay type: functional

`Cc1cc(=O)n(C)c2c3c4c(cc12)c(C)cc(=O)n4C(CN)CO3` (stereo not given) gave an MIC (Escherichia coli [1]) of 0.5 to 16 µg/mL (≈ 1.54 to 49.2 µM), an MIC (Escherichia coli [2]) of 0.5 to 16 µg/mL (≈ 1.54 to 49.2 µM) and an MIC (Escherichia coli [3]) of 0.5 to 16 µg/mL (≈ 1.54 to 49.2 µM). The MIC (Acinetobacter baumannii [4]) was 2 to 16 µg/mL (≈ 6.15 to 49.2 µM), the MIC (Enterobacter cloacae [5]) was 0.5 to 4 µg/mL (≈ 1.54 to 12.3 µM) and the MIC (Escherichia coli [6]) was 0.5 to 16 µg/mL (≈ 1.54 to 49.2 µM). For the same molecule, the MIC (Acinetobacter baumannii [7]) was 2 to 16 µg/mL (≈ 6.15 to 49.2 µM), the MIC (Staphylococcus aureus [8]) was 0.03 to 0.5 µg/mL (≈ 0.0922 to 1.54 µM) and the MIC (Enterobacter cloacae [9]) was 0.5 to 4 µg/mL (≈ 1.54 to 12.3 µM). It also gave an MIC (Acinetobacter baumannii [10]) of 2 to 16 µg/mL (≈ 6.15 to 49.2 µM), an MIC (Klebsiella pneumoniae [11]) of 1 to 8 µg/mL (≈ 3.07 to 24.6 µM) and an MIC (Escherichia coli [12]) of 0.5 to 16 µg/mL (≈ 1.54 to 49.2 µM). The MIC (Klebsiella pneumoniae [13]) was 1 to 8 µg/mL (≈ 3.07 to 24.6 µM), the MIC (Klebsiella pneumoniae [14]) was 1 to 8 µg/mL (≈ 3.07 to 24.6 µM) and the MIC (Pseudomonas aeruginosa [15]) was 16 µg/mL (≈ 49.2 µM). It also gave an MIC (Enterobacter cloacae [16]) of 0.5 to 4 µg/mL (≈ 1.54 to 12.3 µM), an MIC (Acinetobacter baumannii [17]) of 2 to 16 µg/mL (≈ 6.15 to 49.2 µM) and an MIC (Escherichia coli [18]) of 0.5 to 16 µg/mL (≈ 1.54 to 49.2 µM). The MIC (Escherichia coli [19]) was 0.5 to 16 µg/mL (≈ 1.54 to 49.2 µM), the Drug uptake [20] was 1114 nmol and the MIC (Staphylococcus aureus [21]) was 0.03 to 0.5 µg/mL (≈ 0.0922 to 1.54 µM). The MIC (Acinetobacter baumannii [22]) was 2 to 16 µg/mL (≈ 6.15 to 49.2 µM), the MIC (Acinetobacter baumannii [23]) was 2 to 16 µg/mL (≈ 6.15 to 49.2 µM) and the MIC (Escherichia coli [24]) was 0.5 to 16 µg/mL (≈ 1.54 to 49.2 µM).
Work on `CCCCCC[C@H](CCCCCCC(N)=O)OC(=O)[C@@H]1CC=CN1C(=O)c1ccccc1O` yielded a pIC50 (Pseudomonas aeruginosa [25]) of 7.46.
`CN(C)[C@@H]1C(O)=C(C(N)=O)C(=O)[C@@]2(O)C(O)=C3C(=O)c4c(O)cccc4[C@H](c4ccccc4)[C@H]3C[C@@H]12` showed an MIC (Haemophilus influenzae) of 2 µg/mL (≈ 4.08 µM), an MIC (Enterococcus faecium) of 0.5 µg/mL (≈ 1.02 µM) and an MIC (Escherichia coli [26]) of 8 µg/mL (≈ 16.3 µM). It also gave an MIC (Escherichia coli [27]) of over 16 µg/mL, an MIC (Staphylococcus aureus [28]) of 0.5 µg/mL (≈ 1.02 µM) and an MIC (Staphylococcus aureus [29]) of 0.12 µg/mL (≈ 0.245 µM). The MIC (Streptococcus pneumoniae [30]) was under 0.06 µg/mL.
For `CC(=O)Oc1cccc(C(=O)NCCCC(CCCNC(=O)c2cccc(OC(C)=O)c2OC(C)=O)(CCCNC(=O)c2cccc(OC(C)=O)c2OC(C)=O)N[C@@H](C(=O)N[C@@H]2C(=O)N3[C@@H]2SC(C)(C)[C@@H]3C(=O)O)c2ccc(O)cc2)c1OC(C)=O`, the MIC (Pseudomonas aeruginosa [31]) was 0.05 to 0.39 µM (≈ 0.0606 to 0.472 µg/mL), the MIC (Pseudomonas aeruginosa [32]) was 0.05 to 0.39 µM (≈ 0.0606 to 0.472 µg/mL) and the MIC (Pseudomonas aeruginosa [33]) was 12.5 to 50 µM (≈ 15.1 to 60.6 µg/mL). The MIC (Pseudomonas aeruginosa [34]) was 0.05 to 0.39 µM (≈ 0.0606 to 0.472 µg/mL), the MIC (Pseudomonas aeruginosa [35]) was 0.05 to 0.39 µM (≈ 0.0606 to 0.472 µg/mL) and the MIC (Pseudomonas aeruginosa [36]) was 12.5 to 50 µM (≈ 15.1 to 60.6 µg/mL). The MIC (Pseudomonas aeruginosa [37]) was 12.5 to 50 µM (≈ 15.1 to 60.6 µg/mL) and the MIC (Pseudomonas aeruginosa [38]) was 12.5 to 50 µM (≈ 15.1 to 60.6 µg/mL).
Work on `CCCCCC[C@@H](CCCCC[C@H](O)C(N)=O)OC(=O)[C@@H]1CC=CN1C(=O)c1ccccc1O` yielded a pIC50 (Pseudomonas aeruginosa [25]) of 5.10.
In the case of `CC[C@H]1OC(=O)[C@@](C)(F)C(=O)[C@H](C)[C@@H](O[C@@H]2O[C@H](C)C[C@H](N(C)C)[C@H]2O)[C@](C)(OC)C[C@@H](C)C(=O)[C@H](C)[C@@H]2N(CC#CCn3cc(-c4cccc(N)n4)nn3)C(=O)O[C@@]21C`, the MIC (Staphylococcus aureus [39]) was 0.06 µg/mL (≈ 0.0713 µM), the MIC (Streptococcus pneumoniae [40]) was at most 0.03 µg/mL and the MIC (Acinetobacter baumannii [10]) was 2 µg/mL (≈ 2.38 µM). It also gave an MIC (Staphylococcus aureus [41]) of 0.06 µg/mL (≈ 0.0713 µM), an MIC (Enterococcus faecalis [42]) of 1 µg/mL (≈ 1.19 µM) and an MIC (Enterococcus faecalis [43]) of 0.03 µg/mL (≈ 0.0356 µM). It also gave an MIC (Pseudomonas aeruginosa [44]) of 16 µg/mL (≈ 19 µM), an MIC (Staphylococcus aureus [21]) of 0.06 µg/mL (≈ 0.0713 µM) and an MIC (Streptococcus pneumoniae [45]) of at most 0.03 µg/mL.
